What was measured:
Assay type in all cases: biochemical
Conditions in all cases: Table 8
[1] = system: Porcine Atria myofibrils; test: Myofibril ATPase assay (PK/LDH NADH-coupled), atria myofibrils
Outline: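 Values are EC25% (and, for inhibitors, EC50%) from 4-parameter logistic fits of activity normalized to vehicle wells. Rates came from linear regression of 340 nm kinetic reads (every 1.5-2 min, 75 min) of NADH-coupled ATP turnover by porcine atria myofibrils.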

[2] = system: Rabbit Skeletal myofibrils (rabbit psoas muscle); test: Myofibril ATPase assay (PK/LDH NADH-coupled), skeletal myofibrils
Outline: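 ATPase rate taken as linear-regression slope of A340 (NADH depletion through PK/LDH coupling) over a 75 min kinetic read, with psoas-derived rabbit skeletal myofibrils at pH 7.0. Four-parameter fits of vehicle-normalized activity give EC25 and, where reached, EC50.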

[3] = molecular target: T1, Porcine Ventricle myofibrils (left ventricle of Yucatan minipigs) (Sus scrofa, UniProt P79293); test: Myofibril ATPase assay (PK/LDH NADH-coupled), ventricle myofibrils
T1 construct: Myofibrils from porcine cardiac muscle was isolated from the left ventricle of Yucatan minipigs; tissue Exemplar Genetics; host or cells: left ventricle of Yucatan minipigs
T1 sequence (P79293 whole entry): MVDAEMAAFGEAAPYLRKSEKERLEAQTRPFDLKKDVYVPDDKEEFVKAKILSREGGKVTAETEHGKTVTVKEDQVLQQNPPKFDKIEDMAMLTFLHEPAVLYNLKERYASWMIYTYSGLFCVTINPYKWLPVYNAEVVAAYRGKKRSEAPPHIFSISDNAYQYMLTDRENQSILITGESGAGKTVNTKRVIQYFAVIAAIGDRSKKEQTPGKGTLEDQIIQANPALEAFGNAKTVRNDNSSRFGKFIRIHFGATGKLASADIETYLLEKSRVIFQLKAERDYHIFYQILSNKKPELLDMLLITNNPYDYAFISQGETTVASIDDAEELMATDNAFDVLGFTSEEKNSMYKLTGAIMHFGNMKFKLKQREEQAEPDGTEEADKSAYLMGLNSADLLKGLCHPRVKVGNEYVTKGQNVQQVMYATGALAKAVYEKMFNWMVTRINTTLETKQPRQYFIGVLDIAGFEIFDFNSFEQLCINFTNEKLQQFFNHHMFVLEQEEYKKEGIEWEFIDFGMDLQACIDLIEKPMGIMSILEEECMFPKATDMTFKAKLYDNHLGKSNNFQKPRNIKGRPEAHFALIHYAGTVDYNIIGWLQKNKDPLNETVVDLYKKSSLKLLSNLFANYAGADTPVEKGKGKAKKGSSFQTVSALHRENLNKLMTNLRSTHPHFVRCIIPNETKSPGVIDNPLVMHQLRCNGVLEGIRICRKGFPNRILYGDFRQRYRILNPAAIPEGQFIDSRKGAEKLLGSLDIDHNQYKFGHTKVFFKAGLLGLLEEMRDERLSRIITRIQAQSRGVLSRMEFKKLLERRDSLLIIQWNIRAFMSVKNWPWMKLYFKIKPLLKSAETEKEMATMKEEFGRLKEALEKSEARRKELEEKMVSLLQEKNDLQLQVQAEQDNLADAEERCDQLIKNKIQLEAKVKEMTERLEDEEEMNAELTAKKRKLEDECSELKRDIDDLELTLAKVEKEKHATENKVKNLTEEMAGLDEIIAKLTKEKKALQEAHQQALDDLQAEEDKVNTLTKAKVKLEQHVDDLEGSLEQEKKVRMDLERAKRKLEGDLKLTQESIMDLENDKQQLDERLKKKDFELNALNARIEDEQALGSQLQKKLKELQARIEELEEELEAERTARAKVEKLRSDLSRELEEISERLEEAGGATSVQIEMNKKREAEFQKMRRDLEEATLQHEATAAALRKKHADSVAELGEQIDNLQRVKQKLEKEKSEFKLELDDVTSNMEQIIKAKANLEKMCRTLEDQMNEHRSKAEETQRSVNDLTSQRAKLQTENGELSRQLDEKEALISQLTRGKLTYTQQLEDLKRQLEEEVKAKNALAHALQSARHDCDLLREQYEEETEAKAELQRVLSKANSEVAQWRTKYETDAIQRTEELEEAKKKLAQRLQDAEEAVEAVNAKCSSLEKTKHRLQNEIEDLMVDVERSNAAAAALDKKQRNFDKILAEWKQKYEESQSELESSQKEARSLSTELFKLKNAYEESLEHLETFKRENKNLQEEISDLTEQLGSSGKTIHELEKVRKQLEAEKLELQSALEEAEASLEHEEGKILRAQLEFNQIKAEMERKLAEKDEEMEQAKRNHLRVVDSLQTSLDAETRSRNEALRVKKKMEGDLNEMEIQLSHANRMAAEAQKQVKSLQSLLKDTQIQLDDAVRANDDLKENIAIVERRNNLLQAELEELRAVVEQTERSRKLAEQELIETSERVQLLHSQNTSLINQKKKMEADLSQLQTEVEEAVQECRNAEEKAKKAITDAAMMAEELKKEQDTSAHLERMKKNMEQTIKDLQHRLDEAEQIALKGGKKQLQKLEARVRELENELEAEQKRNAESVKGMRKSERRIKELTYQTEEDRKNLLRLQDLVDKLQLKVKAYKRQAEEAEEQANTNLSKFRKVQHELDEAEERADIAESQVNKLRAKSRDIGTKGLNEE
Outline: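 NADH depletion (A340) coupled through pyruvate kinase/lactate dehydrogenase reports ATPase rate of porcine left-ventricle myofibrils over 75 min kinetic reads. Regression slopes, vehicle-normalized, fitted by 4-parameter logistic give EC25 and, where available, EC50.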

Porcine Atria IC25 [1] [nM] | Rabbit Psoas IC25 [2] [nM] | Porcine Ventricle IC25 [3] [nM] | Structure (SMILES)
40 | 21.4 | 51.9 | Cc1cc(C#N)ncc1[C@@H](C)NC(=O)CN1Cc2c(ccc(F)c2F)NC1=O [Compound B83]
390 | 4582 | 28590 | C[C@@H](NC(=O)CN1Cc2c(ccc(F)c2F)NC1=O)c1nc(-c2ccc(F)cn2)no1 [Compound B85]
100000 | 100000 | 100000 | C[C@H](NC(=O)CN1Cc2c(ccc(F)c2F)NC1=O)c1nc(-c2ccc(F)cn2)no1 [Compound B86]
460 | 100000 | 2339 | O=C(CN1Cc2c(ccc(F)c2F)NC1=O)N[C@H]1COc2ccc(F)cc2C1 [Compound B88]
70 | 78.47 | 246.9 | N#Cc1cnc2c(c1)CC[C@H]2NC(=O)CN1Cc2c(ccc(F)c2F)NC1=O [Compound B89, N-[(7R)-3-Cyano-5H,6H,7H-cyclopenta[b]pyridin-7-yl]-2-(5,6-difluoro-2-oxo-1,4-dihydroquinazolin-3-yl)acetamide]
10980 | 100000 | 100000 | N#Cc1cnc2c(c1)CC[C@@H]2NC(=O)CN1Cc2c(ccc(F)c2F)NC1=O [Compound B90]
140 | 391.3 | 783 | C[C@@H](NC(=O)CN1Cc2c(ccc(F)c2F)NC1=O)c1cnc(C#N)cn1 [Compound B91]
30 | 19.09 | 51.26 | C[C@H](NC(=O)CN1Cc2c(ccc(F)c2F)NC1=O)c1cnc(C#N)cn1 [Compound B92]
1260 | 11450 | 5574 | C[C@@H](NC(=O)CN1Cc2c(ccc(F)c2F)NC1=O)c1ccc(Cl)cn1 [Compound B93]
90 | 129.4 | 543.8 | C[C@H](NC(=O)CN1Cc2c(ccc(F)c2F)NC1=O)c1ccc(Cl)cn1 [Compound B94]
1560 | 100000 | 100000 | C[C@@H](NC(=O)CN1Cc2c(ccc(F)c2F)NC1=O)c1nnc(-c2ccccc2F)s1 [Compound B95]
1910 | 21880 | 100000 | C[C@H](NC(=O)CN1Cc2c(ccc(F)c2F)NC1=O)c1nnc(-c2ccccc2F)s1 [Compound B96]
1430 | 8892 | 4796 | C[C@@H](NC(=O)CN1Cc2c(ccc(F)c2F)NC1=O)c1nnc2c(Cl)cc(C(F)(F)F)cn12 [Compound B97]
100000 | 93470 | 72380 | C[C@H](NC(=O)CN1Cc2c(ccc(F)c2F)NC1=O)c1nnc2c(Cl)cc(C(F)(F)F)cn12 [Compound B98]
700 | 100000 | 100000 | C[C@@H](NC(=O)CN1Cc2c(ccc(F)c2F)NC1=O)c1ccncc1F [Compound B99]
30 | 124.6 | 740.9 | C[C@H](NC(=O)CN1Cc2c(ccc(F)c2F)NC1=O)c1ccncc1F [Compound B100]
150 | 1059 | 575.9 | O=C(CN1Cc2c(ccc(F)c2F)NC1=O)N[C@@H]1COc2c(F)cc(F)cc2C1 [Compound B101]
100 | 7621 | 6262 | O=C(CN1Cc2c(ccc(F)c2F)NC1=O)N[C@H]1COc2c(F)cc(F)cc2C1 [Compound B102]
30 | 426 | 1132 | C[C@@H](NC(=O)CN1Cc2c(ccc(F)c2F)NC1=O)c1c(F)cncc1F [Compound B103]
2790 | 100000 | 100000 | C[C@H](NC(=O)CN1Cc2c(ccc(F)c2F)NC1=O)c1c(F)cncc1F [Compound B104]
110 | 4205 | 6381 | C[C@@H](NC(=O)CN1Cc2c(ccc(F)c2F)NC1=O)c1ncc(C#N)cn1 [Compound B105]

Porcine Atria IC25 [1] [nM] | Rabbit Psoas IC25 [2] [nM] | Porcine Ventricle IC25 [3] [nM] | Structure (SMILES)
90 | 302.8 | 476.5 | C[C@H](NC(=O)CN1Cc2c(ccc(F)c2F)NC1=O)c1ncc(C#N)cn1 [Compound B106]
100000 | 100000 | 100000 | C[C@@H](NC(=O)CN1Cc2c(ccc(F)c2F)NC1=O)c1ccc(C(F)(F)F)cn1 [Compound B107]
460 | 1400 | 3587 | C[C@H](NC(=O)CN1Cc2c(ccc(F)c2F)NC1=O)c1ccc(C(F)(F)F)cn1 [Compound B108]
12190 | 13900 | 100000 | C[C@@H](NC(=O)CN1Cc2c(ccc(F)c2F)NC1=O)c1ncncc1F [Compound B109]
40 | 55.8 | 559.5 | C[C@H](NC(=O)CN1Cc2c(ccc(F)c2F)NC1=O)c1ncncc1F [Compound B110]
100000 | 564 | 100000 | C[C@@H](NC(=O)CN1Cc2c(ccc(F)c2C#N)NC1=O)c1ccc(C#N)cn1 [Compound B111]
1510 | 79 | 2318 | C[C@H](NC(=O)CN1Cc2c(ccc(F)c2C#N)NC1=O)c1ccc(C#N)cn1 [Compound B112]
160 | 90.89 | 233 | C[C@@H](NC(=O)CN1Cc2c(F)cccc2NC1=O)c1ccc(C#N)cc1F [Compound B113]
120 | 20.8 | 167.3 | C[C@H](NC(=O)CN1Cc2c(F)cccc2NC1=O)c1ccc(C#N)cc1F [Compound B114]
100000 | 100000 | 100000 | C[C@@H](NC(=O)CN1Cc2c(C#N)cccc2NC1=O)c1ccc(C#N)cn1 [Compound B115]
220 | 74.3 | 672.1 | C[C@H](NC(=O)CN1Cc2c(C#N)cccc2NC1=O)c1ccc(C#N)cn1 [Compound B116, 2-(5-Cyano-2-oxo-1,4-dihydroquinazolin-3-yl)-N-[(1S)-1-(5-cyanopyridin-2-yl)ethyl]acetamide]
150 | 236.6 | 1967 | N#Cc1cc(F)c2c(c1)OC[C@H]2NC(=O)CN1Cc2c(ccc(F)c2C#N)NC1=O [Compound B117]
70 | 13.6 | 110 | N#Cc1cc(F)c2c(c1)OC[C@@H]2NC(=O)CN1Cc2c(ccc(F)c2C#N)NC1=O [Compound B118]
120 | 67.7 | 166.5 | N#Cc1ccc2c(c1)C1(CC1)N(CC(=O)N[C@@H]1COc3cc(F)cc(F)c31)C(=O)N2 [Compound B121]
1310 | 100000 | 100000 | N#Cc1ccc2c(c1)C1(CC1)N(CC(=O)N[C@H]1COc3cc(F)cc(F)c31)C(=O)N2 [Compound B122]
360 | 326.2 | 1870 | N#Cc1cc(F)c2c(c1)OC[C@@H]2NC(=O)CN1Cc2c(ccc(F)c2F)NC1=O [Compound B124]
1620 | 1552 | 100000 | C[C@@H](NC(=O)CN1Cc2c(C#N)cccc2NC1=O)c1ncc(C#N)cc1F [Compound B125]
70 | 40.06 | 346.1 | C[C@H](NC(=O)CN1Cc2c(C#N)cccc2NC1=O)c1ncc(C#N)cc1F [Compound B126]
260 | 3992 | 100000 | C[C@@H](NC(=O)CN1Cc2c(ccc(C#N)c2F)NC1=O)c1ccc(C#N)cc1F [Compound B129]
100000 | 345.6 | 100000 | C[C@@H](NC(=O)CN1Cc2c(ccc(F)c2C#N)NC1=O)c1ncc(C#N)cc1F [Compound B131]
80 | 31.3 | 171.5 | C[C@H](NC(=O)CN1Cc2c(ccc(F)c2C#N)NC1=O)c1ncc(C#N)cc1F [Compound B132]

Reference: patent US12509431B2, “1,4-dihydroquinazolinone compounds and uses thereof” (Edgewise Therapeutics, Inc., priority 2022, dated 2025)
